Laboratory results from patent US12449415B2, “Diagnostics” (Queen Mary University of London, priority 2014, dated 2025).

How the values were obtained:
Format in all cases: cell-based, human
[1] = tested on: isolated neutrophils; test: Glutamate biosensor recording of PMA-stimulated glutamate release, glutamate antagonist experiment (FIG. 1E)
Procedure: Neutrophil preparation from 15 ml of whole blood was achieved by first adding 30 ml PBS under sterile conditions. Half of the PBS/Blood mix was carefully layered on a 15 ml layer of Ficoll-Paque Plus solution in two separate 50 ml falcons using an electronic pipette. The sample was then centrifuged at 1400 rpm at room temp for 30 minutes. 15 ml of sterile blood lysis buffer was added to the pellet centrifuged at 1200 rpm, undergoing 2 lysis cycles. The remaining pellet was washed with sterile PBS, resuspended in 10 ml PBS and the cells were counted. 10 mmol/L of glucose (plasma concentration) was then added in the sample. […]
The sensors were calibrated after every run with stock solutions: 20 μM (in neutrophils) or 40 μM (in blood) of glutamate, <<insert for lactate>> 1 μM (in neutrophils) or 10 μM (in blood) of D-Serine, 10 μM (in neutrophils) or (13.3 μM) of ATP and 0.748 μM adenosine in blood only. To convert changes in the sensor current to changes in the analyte concentrations, the midpoint of the calibration signal at the end of each run and the midpoint of the peak of the net responses (measured from the extrapolated baseline) were used. […]
This experiment was carried out using isolated neutrophils or whole blood from a patient. […] A null sensor measured non-specific release of oxygen reactive species. […]

[2] = tested on: heparinised whole blood; test: Glutamate biosensor recording of glutamate release in stimulated whole blood
Procedure: Recordings were carried out in a custom made chamber (1.7 ml maximum volume) and the temperature of the chamber was controlled by a Circulator C-85D. The sensors were connected to a Due-Stat ME200+ potentiostat (Sycopel International Ltd, Jarrow, UK) which was then connected to a Power 1401 interface for processing of the signal. The operating potential for Sarissaprobes was +600 mV and −50 mV for Sarissagold sensors (switched to +600 m V when not operating). The recordings were analysed by Spike2 software.
Blood was collected from patients or from healthy volunteers and stored in heparinised vials (local ethics approved). The samples were kept on ice and were tested within 1 h of collection. […]
Unless stated otherwise, samples of whole blood from human patients were analysed using the Sarissaprobes and Sarissagold glutamate sensors. […]

[3] = tested on: heparinised whole blood; test: Acetylcholine biosensor recording of acetylcholine release in whole blood; conditions: 1 ml heparinised whole blood, 37° C.; FIG. 4
Procedure: 1.5 ml of the prepared sample (whole blood or isolated neutrophils in PBS/glucose) was pipetted into the temperature controlled chamber with a micro-magnetic stirrer for 5 minutes before the sensors were inserted. The sensors were held on a stereotaxic micro-manipulator with the entire sensing tip inserted in the sample, ensuring maximum analyte detection probability. Recordings were done with either all sensors simultaneously or with various combinations according to the sensor availability and aim of the experiment. Once a steady-state baseline was achieved, 100 nM of PMA or opsonised E. coli were added to the chamber, avoiding contact with the sensors to limit the noise interference. After any detected response signal levelled off, the calibrations were carried out. A control run was always carried out for each experiment where only PMA/E. coli was applied followed by a calibration. The chamber and the sensors were rinsed with PBS or distilled water before every run.
Samples of whole blood from human patients were analysed using the Sarissagold acetylcholine sensor.
PMA was added to 1 ml heparinised whole blood maintained at 37° C. (as indicated by PMA in FIG. 4). A null sensor measured non-specific release of oxygen reactive species. The accetylcholine sensor detects acetylcholine release in real time. The tips of the sensors were 2 mm under the surface of the blood. […]

[4] = tested on: heparinised whole blood; test: ATP biosensor recording of ATP release in whole blood; conditions: 1 ml heparinised whole blood, 37° C.; FIG. 2
Procedure: (§1) The ATP sensors comprised two enzymes, glycerol kinase and glycerol-3-phosphate Oxidase, the adenosine sensor comprised of three enzymes, adenosine deaminase, nucleoside phosphorylase, and xanthine oxidase while the glutamate sensor contained glutamate oxidase. The D-Serine sensor contained D-amino acid oxidase. The ATP sensor had to be stored in 1M glycerol solution for 30 min to be able to operate.
(§2) 1.5 ml of the prepared sample (whole blood or isolated neutrophils in PBS/glucose) was pipetted into the temperature controlled chamber with a micro-magnetic stirrer for 5 minutes before the sensors were inserted. The sensors were held on a stereotaxic micro-manipulator with the entire sensing tip inserted in the sample, ensuring maximum analyte detection probability. Recordings were done with either all sensors simultaneously or with various combinations according to the sensor availability and aim of the experiment. […] After any detected response signal levelled off, the calibrations were carried out. […]
Samples of whole blood from human patients were analysed using the Sarissagold ATP sensor.
(§3) PMA was added to 1 ml heparinised whole blood maintained at 37° C. […] A null sensor measured non-specific release of oxygen reactive species. […]

[5] = tested on: heparinised whole blood; test: D-serine biosensor recording of D-serine release in whole blood; conditions: 1 ml heparinised whole blood, 37° C.; FIG. 3
Procedure: as §1, §2
Samples of whole blood from human patients were analysed using the Sarissagold D-Serine sensor.
as §3

SMILES | PMA-stimulated glutamate release in the presence of the antagonist ([1]; isolated neutrophils, antagonist 100 μM added 1 minute before PMA) | response recorded using the glutamate sensor after addition of the stimulus ([2]; 1 ml heparinised whole blood, 37° C., FIG. 1A/1B) | glutamate release on subsequent stimulation ([2]; PMA added 5 minutes after opsonised E. coli, FIG. 1C) | response recorded using the acetylcholine sensor after addition of the stimulus [3] | response recorded using the ATP sensor after addition of the stimulus [4] | release of glutamate ([1]; PMA added to 1 ml heparinised whole blood (so in the source), no antagonist) [μm] | response recorded using the D-serine sensor after addition of the stimulus [5]
Cc1ccc(CC2(O)CCN(CCOc3ccc(O)cc3)CC2)cc1 [CO101244] | failed to increase glutamate release |  |  |  |  |  | 
CCCCCCCCCCCCCC(=O)O[C@@H]1[C@@H](C)[C@@]2(O)[C@@H](C=C(CO)C[C@]3(O)C(=O)C(C)=C[C@@H]23)[C@@H]2C(C)(C)[C@]12OC(C)=O [PMA, phorbol myristate acetate] |  | led to an increase in the response | failed to increase glutamate release | led to an increase in the response | led to an increase in the response | ~15 | led to an increase in the response
